Literature values as cited in patent EP3124016B1, “ANTIPSORIATIC EMULSION COMPOSITION COMPRISING CEFAZOLIN” (Warszawski Uniwersytet Medyczny, priority 2015, dated 2017).
Counter-ions that a name gives are not always drawn.

Conditions: 1% aqueous solution

Cc1nnc(SCC2=C(C(=O)O)N3C(=O)[C@@H](NC(=O)Cn4cnnn4)[C@H]3SC2)s1 [cefazolin sodium salt]
time for which eye drops were stable (stored at 4°C): 42 days
time for which stability lasted (eye drops, storage in room temperature): only for a few days
